Experimental data reported in PubChem BioAssay (NCI).
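Five concentrations, 48 hours, 96-well plates. GI50: concentration for 50% inhibition of growth. At the TGI there is no net growth.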 Where a SMILES comes first, the peptide text is derived from it.

What was measured:
Assay in all cases: NCI tumour cell line growth inhibition, 48 h
K-562 leukemia = system: K-562 leukemia
MDA-MB-435 = system: MDA-MB-435
SK-MEL-2 melanoma = system: SK-MEL-2 melanoma
SNB-75 CNS = system: SNB-75 CNS
COLO 205 colon = system: COLO 205 colon
SF-295 CNS = system: SF-295 CNS
UACC-257 melanoma = system: UACC-257 melanoma
SK-MEL-28 melanoma = system: SK-MEL-28 melanoma
M14 melanoma = system: M14 melanoma
HL-60(TB) leukemia = system: HL-60(TB) leukemia

| SMILES | GI50 (K-562 leukemia) [µM] | TGI (K-562 leukemia) [µM] | GI50 (MDA-MB-435) [µM] | TGI (MDA-MB-435) [µM] | GI50 (SK-MEL-2 melanoma) [µM] | TGI (SK-MEL-2 melanoma) [µM] | GI50 (SNB-75 CNS) [µM] | TGI (SNB-75 CNS) [µM] | GI50 (COLO 205 colon) [µM] | TGI (COLO 205 colon) [µM] | GI50 (SF-295 CNS) [µM] | TGI (SF-295 CNS) [µM] | GI50 (UACC-257 melanoma) [µM] | TGI (UACC-257 melanoma) [µM] | GI50 (SK-MEL-28 melanoma) [µM] | TGI (SK-MEL-28 melanoma) [µM] | GI50 (M14 melanoma) [µM] | TGI (M14 melanoma) [µM] | GI50 (HL-60(TB) leukemia) [µM] | TGI (HL-60(TB) leukemia) [µM] |
| --- | --- | --- | --- | --- | --- | --- | --- | --- | --- | --- | --- | --- | --- | --- | --- | --- | --- | --- | --- | --- |
| CCCc1cc2cc(-n3nc(C)c4c3CC(C)(C)CC4=O)cc(NC3CCC(O)CC3)c2c(=O)[nH]1 (stereo unspecified) | 0.0502 | > 100 | 0.0812 | > 100 | 0.441 | > 100 | 1.73 | 39.6 | 0.0775 | 1.22 | 0.307 | 2.06 | 0.372 | > 100 | 0.232 | > 100 | 0.0944 | > 100 | 0.13 | 1.2 |
| COc1ccc(N(CC(=O)NCCC[Te]c2ccccc2)C(=O)CCSC2=C(C)C(=O)c3ccccc3C2=O)cc1 | 2.48 | > 22.7 | 2.67 | 8.11 | 2.31 | 5.49 | 1.17 | 7.64 | 1.99 | 3.64 | 0.232 | 0.704 | 2.56 | 6.51 | 2.48 | 5.87 | 1.17 | 2.99 | 2.97 | > 26.1 |
| Cc1cccc2c(N=Nc3ccc(S(N)(=O)=O)cc3)c(O)[nH]c12 | > 25 | > 25 | > 25 | > 25 | > 25 | > 25 | > 25 | > 25 | > 25 | > 25 | > 25 | > 25 | > 25 | > 25 | > 25 | > 25 | > 25 | > 25 | > 25 | > 25 |
| Cc1c2c(nn1C(=O)c1nn(-c3ccc(Cl)cc3)cc1O)-c1ccccc1CC2 | 0.0273 | > 100 | 0.0412 | > 100 | 55.4 | > 100 | 0.0303 | > 100 | 0.323 | 4.22 | 0.0119 | 0.0548 | 0.218 | 9.73 | 0.293 | > 100 | 0.0842 | > 45.5 | 0.0507 | 1.12 |
| N#CC(=S)Nc1ccc(Cl)c(Cl)c1 | – | 46.9 | – | > 70.5 | – | 33.2 | – | 74.7 | – | 49.5 | – | 57.8 | – | > 54.7 | – | > 62.7 | – | > 60.6 | 11.8 | 40.9 |
| Nc1ncnc2c1nc(-c1ccccc1)n2C1OC(CO)C(O)C1O (stereo unspecified) | – | > 100 | – | > 100 | – | > 100 | – | > 100 | – | > 100 | – | > 100 | – | > 100 | – | > 100 | – | > 100 | – | > 100 |
| O=C(Nc1n[nH]c2nc(-c3ccco3)ccc12)C1CC1 | > 25 | > 25 | > 25 | > 25 | > 25 | > 25 | > 25 | > 25 | > 25 | > 25 | > 25 | > 25 | > 25 | > 25 | > 25 | > 25 | > 25 | > 25 | > 25 | > 25 |
| CCN(CC)CCOc1ccc(/C(=C(\C)Cc2ccc(OC)cc2)c2ccc(OC(=O)NCc3ccccc3)cc2)cc1 | 1.75 | 4.52 | 1.86 | 3.97 | 2.16 | 4.9 | 2.42 | 8.48 | 1.86 | 3.76 | 1.75 | 3.3 | 2.04 | 4.2 | 1.82 | 3.44 | 1.7 | 3.26 | 1.3 | 2.97 |
| O=C1N=C(c2ccccc2)OC1C(=O)c1ccccc1 (stereo unspecified) | – | > 100 | – | > 100 | – | > 100 | – | > 100 | – | > 100 | – | > 100 | – | > 100 | – | > 100 | – | > 100 | – | > 100 |
| O=C(Nc1nccs1)c1cc2c(cc1Cl)Sc1nccn1S2(=O)=O | 15.9 | 37.1 | – | 31.3 | 17.4 | 33.1 | 18.8 | 35.4 | – | 30.7 | 18.3 | 34.5 | 13.9 | 26.9 | 20 | 37.6 | 17.8 | 34.6 | 13.6 | 31.2 |
| O=C(O)c1ccc2c(c1Nc1ccccc1)C(=O)c1ccccc1C2=O | 68.5 | > 100 | 48.1 | > 100 | 51.7 | > 100 | 46.7 | > 100 | 38.9 | > 100 | 20.3 | > 100 | 54.8 | > 100 | > 100 | > 100 | 38.1 | > 100 | 79.3 | > 100 |
| O=C(O)C1NCCc2c1[nH]c1ccccc21 (stereo unspecified) | > 100 | > 100 | – | > 10 | – | > 100 | > 100 | > 100 | > 100 | > 100 | – | > 100 | > 100 | > 100 | > 100 | > 100 | > 100 | > 100 | > 100 | > 100 |
| ClCc1ccc(-c2ccc(Cn3cnc4c(Cl)nc(Cl)nc43)cc2)cc1 | 10.4 | > 100 | 2.74 | 9.37 | 1.88 | 3.42 | 2.63 | 7.81 | 2.72 | 8.53 | 2.69 | 6.5 | 1.5 | 3.64 | 1.65 | 3.1 | 13.4 | 32.3 | 3.25 | > 100 |
| O=C1OCc2c1cc(F)cc2[N+](=O)[O-] | > 100 | > 100 | > 100 | > 100 | > 100 | > 100 | > 100 | > 100 | 47.6 | > 100 | > 100 | > 100 | > 100 | > 100 | > 100 | > 100 | > 100 | > 100 | > 100 | > 100 |
| Cn1ncc2c(/N=C/c3cccs3)[nH]c(=S)nc21 | 21.2 | > 100 | 29.9 | > 72.2 | > 64.5 | > 100 | > 63.7 | > 100 | 22.8 | 65.7 | 41.1 | > 83.3 | > 65.4 | > 100 | 56.5 | > 100 | 45.7 | > 100 | 43.6 | > 100 |
| C=C1C(=O)O[C@@H]2C(=O)[C@@H](C)[C@@H]3C=CC(=O)[C@@]3(C)[C@@H](OC(=O)/C(C)=C\C)[C@H]12 | – | 1.64 | – | 3.69 | – | 9.89 | – | 19.9 | – | 0.725 | – | 27.4 | – | 4.65 | – | 1.01 | – | 8.2 | – | 0.415 |
| O=C(Nc1ccccc1)Nc1cccc(-n2cc(-c3ccncc3)c(-c3ccc(O)c(Cl)c3)n2)c1 | 3.59 | 13.4 | 3.03 | 17 | 2.49 | 5.63 | 1.68 | 10.7 | 4.95 | 21 | 2.1 | 4.73 | 2.12 | 4.91 | 3.27 | 18.6 | 3.1 | 9.47 | 2.32 | 5.36 |
| COc1ccc(/C(C)=C(\c2ccc(Cl)cc2)c2ccc(OCCN3CCCC3)cc2)cc1F | 0.944 | 4.54 | 1.48 | 4.65 | 4.27 | 8.4 | 4.42 | 8.22 | 2.16 | 7.49 | 2.92 | 6.25 | 0.872 | 3.2 | 3.13 | 6.27 | 0.882 | 3.09 | 3.54 | 7.89 |
| S=c1nc2[nH]ncc2c(N/N=C/c2ccccc2)[nH]1 | > 100 | > 100 | > 100 | > 100 | > 100 | > 100 | > 100 | > 100 | > 100 | > 100 | > 100 | > 100 | > 100 | > 100 | > 100 | > 100 | > 100 | > 100 | > 100 | > 100 |
| CCOC(=O)c1c(-c2ccccc2)[n+](=O)c2ccc(Cl)cc2n1[O-] | 4.69 | 18.5 | 10.2 | 26.4 | 40 | > 100 | 3.18 | 18.8 | 3.89 | 13.6 | 4.87 | 19.1 | 4.06 | 16.6 | 18 | 52.7 | 10.1 | 21.7 | 5.66 | 20.3 |
| O=C(O)CC(Nc1ccccc1)C(=O)O (stereo unspecified) | – | > 100 | – | > 100 | – | > 100 | – | > 100 | – | > 100 | – | > 100 | – | > 100 | – | > 100 | – | > 100 | – | > 100 |
| C#CCN=C(N/N=C/c1ccc([N+](=O)[O-])o1)NS(=O)(=O)c1cc(C)c(Cl)cc1SCC(N)=O | 23.7 | 52.5 | > 100 | > 100 | 4.97 | 18.3 | 25.8 | 59.8 | 26.9 | 84.4 | 22.8 | 47.1 | 13.9 | 27 | 14.5 | 32.7 | – | – | 21.1 | > 100 |
| CC(C)CC(NC(=O)C(CC(C)C)NC(=O)C(Cc1cnc[nH]1)NC(=O)C(C)NC(=O)C(NC(=O)C(C)NC(=O)C(Cc1c[nH]c2ccccc12)NC(=O)C(CCC(=O)O)NC(=O)C(N)Cc1ccccc1)C(C)C)C(N)=O (stereo unspecified) (H-FEWAVAHLL-NH2; configuration not given here) | > 100 | > 100 | – | > 12.5 | > 100 | > 100 | – | > 100 | > 100 | > 100 | > 100 | > 100 | > 100 | > 100 | – | > 100 | > 100 | > 100 | > 100 | > 100 |
| COc1cc(C#N)cc(OC)c1OCCOCCOc1c(OC)cc(C#N)cc1OC | 11.7 | 37.1 | > 100 | > 100 | > 100 | > 100 | > 100 | > 100 | 37.2 | > 100 | 84.9 | > 100 | 99.1 | > 100 | > 100 | > 100 | 52.2 | > 100 | 19 | 85.7 |
| COc1ccc2c(c1)CCc1c(-c3noc4c3CCc3cc(OC)ccc3-4)noc1-2 | – | > 100 | – | > 100 | – | > 100 | – | > 100 | – | > 100 | – | > 100 | – | > 100 | – | > 100 | – | > 100 | – | > 100 |
| COc1ccc(/C=C2\CN(Cc3cn(CCCNc4ccnc5cc(Cl)ccc45)nn3)C/C(=C\c3ccc(OC)c(OC)c3)C2=O)cc1OC | 0.459 | 3.64 | 1.12 | 5.32 | 2.32 | 6.84 | 1.71 | 6.09 | 1.03 | 2.39 | 2.08 | 4.1 | 2.24 | 12 | 2.42 | 8.7 | 2.59 | 9.68 | 0.685 | 4.03 |
| NC1=C(Cl)C(=O)c2ccc(S(N)(=O)=O)cc2C1=O | 0.313 | 1.21 | 0.0288 | 0.0743 | 0.192 | 0.487 | 0.144 | 0.293 | 1.57 | 2.98 | 0.143 | 0.289 | 0.128 | 0.267 | 0.247 | 0.565 | 0.134 | 0.278 | 0.366 | 1.18 |
